Here are results for one molecule from patent US11389429B2, “Use of carbamate compound for preventing, alleviating or treating myotonia” (SK BIOPHARMACEUTICALS CO., LTD., priority 2017, dated 2022).

The subject of this test is myotonia induced by anthracene-9-carboxylic acid (9-AC) in Sprague-Dawley rats. In words: Myotonia induction model by drug (9-AC) treatment, righting reflex test. The test is classed as in vivo, rat. Further details: Average Righting reflex time (TRR): unit not given here. The following applies: for Average Righting reflex time (TRR): 9-AC given 20 minutes later. The text has this: The efficacy for myotonia of the compounds of the above Formula 1 can be confirmed by the use of known models. For example, the efficacy of the compounds of the above Formula 1 may be evaluated in a myotonia model caused by anthracene-9-carboxylic acid (9-AC). Anthracene-9-carboxylic acid can cause myotonic conditions by blocking the chloride channel-1 of muscle cells. Myotonic conditions are induced by intraperitoneal injection once to experimental animals (rats), and can be evaluated by measuring the righting reflex time. Righting reflex is a reflex behavior in which the animal's body returns from an abnormal position to a normal position, and the degree of myotonia can be evaluated by measurement of righting reflex behavior due to abnormality of muscle tension/relaxation after 9-AC treatment. Specifically, the degree of spasticity is evaluated by measuring the time that it takes for the four feet of the experimental animal to land normally when the experimental animal is turned upside down and the posture is straightened (time of righting reflex, TRR).
In the experimental animal model of myotonia induction by drug (9-AC) treatment, it was reported that the time to return to normal posture after righting reflex was delayed when measuring the rat's spasticity conditions using righting reflex (Desaphy et al., 2013, Neuropharmacology, 65: 21-27).
As an experimental model, Sprague-Dawley rats (350-400 g, 10 weeks old, a total of 36 males) were used (Orient Bio Inc.). The drug anthracene-9-carboxylic acid (9-AC) used to induce myotonia is a drug that inhibits chloride channel-1 of skeletal muscle cells and induces hyperexcitation of muscle cells. The control group (30% PEG300) or test compound was intraperitoneally administered to the rat once in each dose (15, 20 mg/kg). Test compounds were diluted in 30% PEG300 solution to a final dose of 5 ml/kg. After 20 minutes of administration of control group or test compound, 0.3% NaHCO3 solution containing 6 mg/ml of 9-AC was intraperitoneally administered by 10 ml/kg. After administration of 9-AC, righting reflex tests were performed at 30 minutes and 1 hour, respectively, and the time to return to normal posture (time of righting reflex, TRR) was measured.
Statistical analysis was used for the one-way ANOVA (1-way ANOVA) and Tukey's multiple comparison test, and outliers were excluded through the ROUT outlier analysis test (Q=1%) (in the 30-minute test, excluding each one in the control group and the 20 mg/kg treatment group; in the 1-hour test, excluding one in the 20 mg/kg treatment group). The results were derived from three repeated experiments.

As for `NC(=O)O[C@@H](Cn1ncnn1)c1ccccc1Cl` [Test compound, carbamic acid (R)-1-(2-chlorophenyl)-2-tetrazol-2-yl-ethyl ester], the “Average Righting reflex time (TRR)” value (15 mg/kg intraperitoneal, measured 30 minutes after 9-AC, n = 9) amounted to 2.282 ± 0.304; the “Average Righting reflex time (TRR)” value (15 mg/kg intraperitoneal, measured 1 hour after 9-AC, n = 9) is on record as 4.978 ± 0.944; the “Average Righting reflex time (TRR)” value (20 mg/kg intraperitoneal, measured 30 minutes after 9-AC, n = 8) came to 1.85 ± 0.266; the “Average Righting reflex time (TRR)” value (20 mg/kg intraperitoneal, measured 1 hour after 9-AC, n = 8) was 2.515 ± 0.328. Moreover, the “Time to return to normal posture compared to the control group (statistical significance)” value (20 mg/kg, at both 30 minutes and 1 hour after 9-AC, P<0.05, one-way ANOVA and Tukey's test) is “significant time reduction effect”. The “Time to return to normal posture compared to the control group in righting reflex test” value (15 and 20 mg/kg, 30 minutes and 1 hour after spasticity was induced) is reported as “decrease in time to return to normal posture”.
